How the values were obtained:
LNCap = assay: Cell-Titer Glo Cell Growth Inhibition Assay, LNCap; type: cell-based; conditions: Homo sapiens, CellTiter-Glo, 72 h, read-out: CTG LNCap IC50
Protocol: (§1) A549-L (human lung), BT474 (human breast), Colo 205 (human colon), H1299 (human lung), Hela (human cervix), HCT-116 (human colon), HN5 (human head and neck), HT29 (human colon), LNCap (human prostate), MCF7 (human breast), MDA-MB468 (human breast), MX-1 (human breast), RPMI 8226 (human peripheral blood), SKOV3 (human ovary) and P388 (murine leukemia) cell lines were cultured in RPMI1640 containing 10% fetal bovine serum at 37° C. in a 5% CO2 incubator. Cell lines were split into T75 flasks (Falcon #353136) two to three days prior to assay set up at density which yields approximately 70-80% confluency at time of harvest for assay. Cells were harvested using 0.25% trypsin with EDTA (Glibco/Invitrogen #25200-056), Cell counts were performed on cell suspensions using Trypan Blue exclusion staining, cells were then plated in 105 uL of culture media per well at the following densities in 96 well Costar #3916 black flat bottom plates: All human cell lines were plated at 500 cells/well. P388 were plated at 250 cells/well. All plates were placed at 5% CO2 37° C. overnight and then test compounds were added the following day. One plate of each cell type is treated with CellTiter-Glo (Promega #G7573) for a day 0 proliferation measurement and read as described below. […]

HT29 = assay: Cell-Titer Glo Cell Growth Inhibition Assay, HT29; type: cell-based; conditions: Homo sapiens, HT-29, CellTiter-Glo, 72 h, read-out: CTG HT29 IC50
Protocol: (§2) A549-L (human lung), BT474 (human breast), Colo 205 (human colon), H1299 (human lung), Hela (human cervix), HCT-116 (human colon), HN5 (human head and neck), HT29 (human colon), LNCap (human prostate), MCF7 (human breast), MDA-MB468 (human breast), MX-1 (human breast), RPMI 8226 (human peripheral blood), SKOV3 (human ovary) and P388 (murine leukemia) cell lines were cultured in RPMI1640 containing 10% fetal bovine serum at 37° C. in a 5% CO2 incubator. Cell lines were split into T75 flasks (Falcon #353136) two to three days prior to assay set up at density which yields approximately 70-80% confluency at time of harvest for assay. Cells were harvested using 0.25% trypsin with EDTA (Glibco/Invitrogen #25200-056), Cell counts were performed on cell suspensions using Trypan Blue exclusion staining, cells were then plated in 105 uL of culture media per well at the following densities in 96 well Costar #3916 black flat bottom plates: All human cell lines were plated at 500 cells/well. P388 were plated at 250 cells/well. All plates were placed at 5% CO2 37° C. overnight and then test compounds were added the following day. One plate of each cell type is treated with CellTiter-Glo (Promega #G7573) for a day 0 proliferation measurement and read as described below. The test compounds are prepared in clear U bottom polypropylene 96 well plates (Falcon #35-1190 with consecutive two fold dilutions. 9 uL of these dilutions was added into each well of the cell plates. The final concentration of DMSO in all wells is 0.15%. Cells were incubated at 37° C., 5% CO2 for 72 h. Following 72 h of incubation with compounds each plate was developed and read. CellTiter-Glo reagent was added to assay plates using a volume equivalent to the cell culture volume in the wells. Plates were shaken for approximately two minutes and incubated at room temperature for approximately 15 min and the chemiluminescent signal is read on the Victor V or Envison 2100 reader. […] Concentration of compound that inhibited 50% of cell growth (IC50) was analysis by 4 or 6 parameter fit of data using XLfit, value of no cell addition was subtracted from all samples for background.

[1] = Intravenous pharmacokinetics in CD-1 mouse; type: in vivo; conditions: plasma, iv bolus, male CD-1 mouse, dose 1.9-7.4 mg/kg per compound (Table 3)
Protocol: Preliminary investigation of the intravenous pharmacokinetics of compounds of invention were carried out in fed conscious CD-1 mouse. Compounds were formulated as 1-10 mg/kg, 5 mL/kg, 1-2 mg/mL solution (Table 3). Twenty one male mice (n=3 mice per time point) (˜30 g) received dose solution by bolus injection in the tail vein. The formulation for iv were either 20% beta cyclodextrin in saline pH 3.5-6 or PEG400:ethanol:saline (50:15:35 v/v). Blood samples (˜0.4 mL) were collected terminally by cardiac puncture following anesthetization in a CO2 chamber at 2, 15, 30, 60 min, 2, 4, and 6 h following iv administration. Blood samples were collected into tubes containing heparin and placed on crushed ice promptly after collection. Plasma was collected by centrifugation, frozen and stored at about −80° C. prior to analysis. Blood or plasma concentrations were determined by LC/MS/MS equipped with an electrospray ion source and using calibration curves for the appropriate matrix. The lower level of quantitation (LLQ) was 10 ng/mL. Blood or plasma concentration-time data were analyzed by non-compartmental methods using the computer program WinNonlin Professional (version 4.1). Area under the blood or plasma concentration-time curve (AUC) was calculated using the linear trapezoidal rule for each incremental trapezoid up to Cmax, and the log trapezoidal rule for each trapezoid thereafter. The terminal elimination rate constant (λz) was derived from the log-linear disposition phase of the concentration-time curve using least-squares regression analysis with visual inspection of the data to determine the appropriate number of terminal data points for regression analysis.
Following iv administration, the total body clearance (CL) was estimated. CL was calculated by dividing the dose by AUC(0−t). The clearance values were assigned as follows. Low <30 mL/min/kg, moderate 30-70 mL/min/kg, high >70 mL/min/kg. The assignment was based on hepatic blood flow i.e. hepatic blood flow of 0-30% low, 30-70% moderate and 70-100% high. The hepatic blood flow in mouse is ˜100 mL/min/kg.

MX-1 = assay: Cell-Titer Glo Cell Growth Inhibition Assay, MX-1; type: cell-based; conditions: Homo sapiens, MX1, CellTiter-Glo, 72 h, read-out: CTG MX-1 IC50
Protocol: as §2

MCF7 = assay: Cell-Titer Glo Cell Growth Inhibition Assay, MCF7; type: cell-based; conditions: Homo sapiens, CellTiter-Glo, 72 h, read-out: CTG MCF7 IC50
Protocol: as §1

Hela = assay: Cell-Titer Glo Cell Growth Inhibition Assay, Hela; type: cell-based; conditions: Homo sapiens, CellTiter-Glo, 72 h, read-out: CTG Hela IC50
Protocol: as §1

H1299 = assay: Cell-Titer Glo Cell Growth Inhibition Assay, H1299; type: cell-based; conditions: Homo sapiens, NCI-H1299, CellTiter-Glo, 72 h, read-out: CTG H1299 IC50
Protocol: as §1

SKOV3 = assay: Cell-Titer Glo Cell Growth Inhibition Assay, SKOV-3; type: cell-based; conditions: Homo sapiens, SK-OV-3, CellTiter-Glo, 72 h, read-out: CTG SKOV-3 IC50
Protocol: as §2

MDA-MB468 = assay: Cell-Titer Glo Cell Growth Inhibition Assay, MDA-MB468; type: cell-based; conditions: Homo sapiens, MDA-MB-468, CellTiter-Glo, 72 h, read-out: CTG MDA-MB468 IC50
Protocol: as §1

BT474 = assay: Cell-Titer Glo Cell Growth Inhibition Assay, BT474; type: cell-based; conditions: Homo sapiens; CellTiter-Glo, 72 h, BT 474; read-out: CTG BT 474 IC50
Protocol: as §1

Colo 205 = assay: Cell-Titer Glo Cell Growth Inhibition Assay, COLO205; type: cell-based; conditions: Homo sapiens, CellTiter-Glo, 72 h, read-out: CTG COLO205 IC50
Protocol: as §2

HN5 = assay: Cell-Titer Glo Cell Growth Inhibition Assay, HN5; type: cell-based; conditions: Homo sapiens, CellTiter-Glo, 72 h, read-out: CTG HN5 IC50
Protocol: as §1

RPMI 8226 = assay: Cell-Titer Glo Cell Growth Inhibition Assay, RPMI 8226; type: cell-based; conditions: Homo sapiens, CellTiter-Glo, 72 h, read-out: CTG RPMI 8226 IC50
Protocol: as §1

P388 = assay: Cell-Titer Glo Cell Growth Inhibition Assay, P388; type: cell-based, murine; conditions: Mus musculus, CellTiter-Glo, 72 h, read-out: CTG P388 IC50
Protocol: as §2

A549-L = assay: Cell-Titer Glo Cell Growth Inhibition Assay, A549-L; type: cell-based; conditions: Homo sapiens, CellTiter-Glo, 72 h, read-out: CTG A549-L IC50
Protocol: as §2

HCT-116 = assay: Cell-Titer Glo Cell Growth Inhibition Assay, HCT116; type: cell-based; conditions: Homo sapiens, CellTiter-Glo, 72 h, read-out: CTG HCT116 IC50
Protocol: as §2

IC50 (LNCap): < 100 nM
IC50 (HT29): < 100 nM
AUC(0-t) [1]: 1410 ng·h/mL
clearance ([1]; read-out: Plasma CL): 43.6 mL/min/kg
IC50 (MCF7): < 100 nM
IC50 (Hela): < 100 nM
IC50 (H1299): < 100 nM
IC50 (SKOV3): < 100 nM
IC50 (MDA-MB468): < 100 nM
IC50 (BT474): < 100 nM
IC50 (Colo 205): < 100 nM
IC50 (P388): < 100 nM
IC50 (A549-L): < 100 nM
IC50 (HCT-116): < 100 nM
SMILES: CCN1CCN(CCCn2cc(-c3ccc4c(c3)ncn4-c3cc(O[C@H](C)c4ccccc4Cl)c(C(N)=O)s3)cn2)CC1 [Example 8, 3-{[(1R)-1-(2-Chlorophenyl)ethyl]oxy}-5-(5-{1-[3-(4-ethyl-1-piperazinyl)propyl]-1H-pyrazol-4-yl}-1H-benzimidazol-1-yl)-2-thiophenecarboxamide]
IC50 (MX-1): < 100 nM
IC50 (HN5): < 100 nM
IC50 (RPMI 8226): < 100 nM

From US20080214563A1, “Benzimidazole Thiophene Compounds As Plk Modulators” (priority 2005, published 2008)
